Measurements from ChEMBL document CHEMBL5131547, “Novel Halomethylketone Azadipeptides for Treating COVID-19” (ACS Med Chem Lett, 2022).
pIC50: −log10 of the molar value.

Target: Replicase polyprotein 1ab (Severe acute respiratory syndrome coronavirus 2, UniProt P0DTD1)
Assay: Inhibition of recombinant SARS-CoV-2 3CLpro expressed in Escherichia coli BL21 DE3 using FAM-KTSAVLQSGFRKMEK-TAMRA fluorogenic peptide as substrate preincubated for 1 hr followed by substrate addition measured after 30 mins by FRET assay

Structure (SMILES)	pIC50
CC(C)C[C@H](NC(=O)OCc1ccccc1)C(=O)NN(CC1CCCNC1=O)C(=O)CCl (some centres not stated)	8.30
CC(C)C[C@H](NC(=O)c1cc2ccccc2[nH]1)C(=O)NN(C[C@H]1CCNC1=O)C(=O)CCl	8.52
